According to publication PMC5464343 (Pharmacology Research & Perspectives, 2017):

Assays:
[1] = system: wild‐type CYP450s 1A2, 2C8, 2C9, 2C19, 2D6, 3A4, and 3A5; experiment: Metabolite identification, wild‐type CYP450‐overexpressing HEK293 microsomes; format: in vitro ADME, human; conditions: compound presented as substrate to overexpressing CYP450 microsomes
UGT2B17 = conditions: HLM panel; ref Sun et al. 2010; cited from earlier work
CYP2D6*2 = conditions: transiently expressed CYP2D6*2, bufuralol 1′‐hydroxylation; ref Sakuyama et al. (2008); cited from earlier work
CYP2C8*4 = system: CYP2C8*4; parameters: method as in Kaspera et al. (2010); conditions: recombinant CYP2C8*4; ref Kaspera et al. (2010); cited from earlier work
CYP2C8*2 = system: CYP2C8*2; parameters: method as in Kaspera et al. 2010; conditions: E. coli‐expressed CYP2C8*2 vs wild‐type; M‐1 and M‐23 formation; ref Kaspera et al. 2010; cited from earlier work
CYP2C9 = CYP2C9 (Homo sapiens, UniProt P11712); conditions: wild‐type CYP2C9*1A; V max/K M
CYP2C9, sequence (P11712 whole entry): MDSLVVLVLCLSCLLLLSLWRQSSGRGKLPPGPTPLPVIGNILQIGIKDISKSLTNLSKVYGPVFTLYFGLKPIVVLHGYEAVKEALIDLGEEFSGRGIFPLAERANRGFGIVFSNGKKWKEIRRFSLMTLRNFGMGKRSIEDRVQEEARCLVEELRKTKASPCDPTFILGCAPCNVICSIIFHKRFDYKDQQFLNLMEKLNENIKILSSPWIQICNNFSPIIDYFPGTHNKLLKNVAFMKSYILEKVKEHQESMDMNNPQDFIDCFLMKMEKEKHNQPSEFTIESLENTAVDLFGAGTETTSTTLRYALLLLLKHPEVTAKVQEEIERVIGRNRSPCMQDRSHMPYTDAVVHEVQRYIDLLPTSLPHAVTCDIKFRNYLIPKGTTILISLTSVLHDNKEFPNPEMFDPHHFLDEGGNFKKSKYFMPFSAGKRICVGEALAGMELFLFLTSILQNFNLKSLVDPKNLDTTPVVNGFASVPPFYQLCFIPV

[2] = system: CYP2D6^Pro34Ser, Ser486Thr
CYP2C8 = target: T1, CYP2C8 (Homo sapiens, UniProt P10632); conditions: wild‐type CYP2C8*1A; V max/K M
T1 sequence (P10632 1-490): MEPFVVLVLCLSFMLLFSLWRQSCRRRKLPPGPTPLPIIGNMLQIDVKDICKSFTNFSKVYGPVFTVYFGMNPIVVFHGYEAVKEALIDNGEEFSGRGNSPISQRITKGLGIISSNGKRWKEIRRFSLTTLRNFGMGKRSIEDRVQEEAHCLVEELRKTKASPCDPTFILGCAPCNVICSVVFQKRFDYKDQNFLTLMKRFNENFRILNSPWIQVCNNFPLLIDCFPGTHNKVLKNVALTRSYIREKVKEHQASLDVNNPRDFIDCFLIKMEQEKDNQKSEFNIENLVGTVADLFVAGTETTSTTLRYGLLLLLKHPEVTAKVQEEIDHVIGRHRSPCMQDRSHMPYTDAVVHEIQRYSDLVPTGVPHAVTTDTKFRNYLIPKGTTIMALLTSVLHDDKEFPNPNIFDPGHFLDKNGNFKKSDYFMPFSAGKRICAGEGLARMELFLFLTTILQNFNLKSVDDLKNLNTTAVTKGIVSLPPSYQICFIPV

pooled HLM = system: pooled HLM; parameters: method as in Kamdem et al. 2011; conditions: pooled HLM treated with ketoconazole; ref Kamdem et al. 2011; cited from earlier work
[3] = substrate: C=C1C[C@@H]2[C@H](CC[C@]3(C)C(=O)CC[C@@H]23)[C@@]2(C)C=CC(=O)C=C12; experiment: cells, lysate or membranes named; conditions: other: CYP2C8*3; normalized to relative CYP450 content; pH 7.4; 37.0 °C

Which secondary metabolite formation [1] does the source give for `C[C@]12C=CC(=O)C=C1C(CO)=C[C@@H]1[C@@H]2CC[C@]2(C)C(=O)CC[C@@H]12` [6‐HME, 6‐hydroxymethylandrosta‐1,4,6‐triene‐3,17‐dione] here?
Its secondary metabolite formation is “not observed”.

Which secondary metabolite formation [1] does the source give for `C=C1C[C@H]2[C@@H]3CC[C@@H](O)[C@@]3(C)CC[C@@H]2[C@@]2(C)C=CC(=O)C=C12` [17α‐DHE, 17α‐hydroxy‐6‐methyleneandrosta‐1,4‐dien‐3‐one] here?
Its secondary metabolite formation is “not observed”.

Which secondary metabolite formation [1] does the source give for `C=C1C[C@H]2[C@@H]3CC[C@H](O)[C@@]3(C)CC[C@@H]2[C@@]2(C)C=CC(=O)C=C12` [17β‐DHE, 17β‐hydroxy‐6‐methyleneandrosta‐1,4‐dien‐3‐one] here?
Its secondary metabolite formation is “not observed”.

And the “glucuronidation (V max/K M) lower in UGT2B17‐null homozygotes (*2/*2) compared to wild‐type homozygotes (*1/*1)” value (UGT2B17)?
The value was 36 fold.

With `CCc1cccc2cc(C(O)CNC(C)(C)C)oc12` (stereo not drawn) [bufuralol] as the molecule, how does the “decrease in substrate affinity” value (CYP2D6*2) read?
Its value is “two‐fold”.

What does the source list for `COCc1c(C(C)C)nc(C(C)C)c(/C=C/[C@@H](O)C[C@@H](O)CC(=O)O)c1-c1ccc(F)cc1` [cerivastatin]?
increase of combined clearance of the M‐1 and M‐23 cerivastatin metabolites compared to wild‐type (CYP2C8*4): approximately 2.5 fold; increase in the sum of cerivastatin metabolite clearance (CYP2C8*2): 53%

For `C=C1C[C@@H]2[C@H](CC[C@]3(C)C(=O)CC[C@@H]23)[C@@]2(C)C=CC(=O)C=C12` [exemestane, 6‐methyleneandrosta‐1,4‐diene‐3,17‐dione], which CLINT (CYP2C9) is on record?
Its CLINT is 0.027 µL/min/mg.

And the CLINT ([2]; CYP2D6*10, V max/K M)?
The CLINT was 0.038 µL/min/mg.

And the V max ([2]; CYP2D6*10, normalized to relative CYP450 content)?
The V max was 39 ± 6 pmol/min/mg.

And the “increase of the K M value for EXE substrate” value ([2]; CYP2D6*10 vs CYP2D6*1)?
Its value is 82%.

And the “decrease in clearance compared to CYP2D6*1” value ([2]; human, microsomes, pH 7.4)?
Its value is 56%.

What about the CLINT (CYP2C8) of the same molecule?
The CLINT was 0.194 µL/min/mg.

For `CC(=O)N1CCN(c2ccc(OCC3COC(Cn4ccnc4)(c4ccc(Cl)cc4Cl)O3)cc2)CC1` (stereo not drawn) [ketoconazole], which “effect on 6‐HME formation” value (pooled HLM) is on record?
The value was “strongly inhibits”.

B1: CYP2C8^Arg139Lys, Lys399Arg (Homo sapiens; K399R/R139K) (protein)
chain: MEPFVVLVLCLSFMLLFSLWRQSCRRRKLPPGPTPLPIIGNMLQIDVKDICKSFTNFSKVYGPVFTVYFGMNPIVVFHGYEAVKEALIDNGEEFSGRGNSPISQRITKGLGIISSNGKRWKEIRRFSLTTLRNFGMGKKSIEDRVQEEAHCLVEELRKTKASPCDPTFILGCAPCNVICSVVFQKRFDYKDQNFLTLMKRFNENFRILNSPWIQVCNNFPLLIDCFPGTHNKVLKNVALTRSYIREKVKEHQASLDVNNPRDFIDCFLIKMEQEKDNQKSEFNIENLVGTVADLFVAGTETTSTTLRYGLLLLLKHPEVTAKVQEEIDHVIGRHRSPCMQDRSHMPYTDAVVHEIQRYSDLVPTGVPHAVTTDTKFRNYLIPKGTTIMALLTSVLHDDREFPNPNIFDPGHFLDKNGNFKKSDYFMPFSAGKRICAGEGLARMELFLFLTTILQNFNLKSVDDLKNLNTTAVTKGIVSLPPSYQICFIPV
With B1 as the molecule, how does the Vmax [3] read?
Its Vmax is 0.000144 µmol/min/mg.
